This is an account of results in ChEMBL document CHEMBL1134487, “Design, synthesis, and biological evaluation of analogues of the antitumor agent, 2-(4-[(7-chloro-2-quinoxalinyl)oxy]phenoxy)propionic acid (XK469)” (2001).

Test [1] relates to Mus musculus. In words: In vivo activity tested against C3H mice bearing colon adenocarcinoma -38(colon-38) tumor measured as % treated/control calculated at 495 mg/kg (po). The class given is functional.
The subject of test [2] is Mus musculus. Briefly: In vivo activity tested against C3H mice bearing colon adenocarcinoma -38(colon-38) tumor, measured as cures at 495 mg/kg (po); 3/5 cures. In kind it is functional.
In test [3] the test system is Mus musculus. Briefly: In vivo activity tested against C3H mice bearing colon adenocarcinoma -38(colon-38) tumor measured as log Kill value was based on tumors that grew at 495 mg/kg (po). In kind it is functional, organism-based. Further details: dose 495 mg/kg.
Test [4] has as its system Mus musculus. In words: In vivo activity tested against C3H mice bearing colon adenocarcinoma -38(colon-38) tumor measured as activity rating at 495 mg/kg (po). In kind it is functional.
Test [5] deals with Mus musculus. Briefly: In vivo activity tested against C3H mice bearing colon adenocarcinoma -38(colon-38) tumor measured as body weight loss at 495 mg/kg (po). The class given is functional.
The test system of test [6] is Mus musculus. Briefly: In vivo activity tested against C3H mice bearing panc-03 murine tumor measured as log Kill value was based on tumors that grew at 1310 mg/kg (po). In kind it is functional, organism-based. Further details: dose 1310 mg/kg.
Test [7] relates to Mus musculus. Briefly: In vivo activity tested against C3H mice bearing panc-03 murine tumor measured as body weight loss at 1310 mg/kg (po). The class given is functional.
Test [8] relates to Mus musculus. In words: In vivo activity tested against C3H mice bearing panc-03 murine tumor measured as % treated/control calculated at 1310 mg/kg (po). In kind it is functional.
Test [9] relates to Mus musculus. Briefly: In vivo activity tested against C3H mice bearing mammary adenocarcinoma -17/ADR tumor measured as log Kill value was based on tumors that grew at 216 mg/kg (po). In kind it is functional, organism-based. Details: dose 216 mg/kg.
For test [10], the system named is Mus musculus. Briefly: In vivo activity tested against C3H mice bearing panc-03 murine tumor measured as % treated/control calculated at 144 mg/kg (po). The class given is functional.
The test system of test [11] is Mus musculus. In words: In vivo activity tested against C3H mice bearing mammary adenocarcinoma -17/ADR tumor measured as body weight loss at 216 mg/kg (po). The class given is functional.
For test [12], the system named is Mus musculus. Briefly: In vivo activity tested against C3H mice bearing panc-03 murine tumor measured as body weight loss at 144 mg/kg (po). In kind it is functional.
For test [13], the system named is Mus musculus. Briefly: In vivo activity tested against C3H mice bearing panc-03 murine tumor measured as log Kill value was based on tumors that grew at 144 mg/kg (po). Details: dose 144 mg/kg. In kind it is functional, organism-based.
Test [14] deals with Mus musculus. Briefly: In vivo activity tested against C3H mice bearing mammary adenocarcinoma -17/ADR tumor measured as % treated/control calculated at 216 mg/kg (po). The class given is functional.
Test [15] concerns Mus musculus. Briefly: In vivo activity tested against C3H mice bearing panc-03 murine tumor measured as % treated/control calculated at 939 mg/kg (po). In kind it is functional.
Test [16] deals with Mus musculus. In words: In vivo activity tested against C3H mice bearing panc-03 murine tumor measured as log Kill value was based on tumors that grew at 939 mg/kg (po). The class given is functional, organism-based. Further details: dose 939 mg/kg.
Test [17] has as its system Mus musculus. Briefly: In vivo activity tested against C3H mice bearing panc-03 murine tumor measured as body weight loss at 939 mg/kg (po). In kind it is functional.
Test [18] relates to Mus musculus. Briefly: In vivo activity tested against C3H mice bearing panc-03 murine tumor. The class given is functional.
Test [19] relates to Mus musculus. In words: In vivo activity tested against C3H mice bearing panc-03 murine tumor measured as% treated/control calculated at 477 mg/kg (po). In kind it is functional.
Test [20] has as its system Mus musculus. Briefly: In vivo activity tested against C3H mice bearing panc-03 murine tumor measured as log Kill value was based on tumors that grew at 477 mg/kg (po); kill value was NIL. In kind it is functional, organism-based. Further details: dose 477 mg/kg.
In test [21] the test system is Mus musculus. Briefly: In vivo activity tested against C3H mice bearing panc-03 murine tumor measured as body weight loss at 477 mg/kg (po). The class given is functional.
Test [22] concerns Mus musculus. Briefly: In vivo activity tested against C3H mice bearing colon adenocarcinoma -38(colon-38) tumor measured as % treated/control calculated at 769 mg/kg (po). The class given is functional.
For test [23], the system named is Mus musculus. Briefly: In vivo activity tested against C3H mice bearing colon adenocarcinoma -38(colon-38) tumor measured as log Kill value was based on tumors that grew at 769 mg/kg (po). The class given is functional, organism-based. Further details: dose 769 mg/kg.
Test [24] relates to Mus musculus. In words: In vivo activity tested against C3H mice bearing colon adenocarcinoma -38(colon-38) tumor measured as activity rating at 769 mg/kg (po). In kind it is functional.
Test [25] deals with Mus musculus. Briefly: In vivo activity tested against C3H mice bearing colon adenocarcinoma -38(colon-38) tumor measured as body weight loss at 769 mg/kg (po). The class given is functional.
In test [26] the test system is Mus musculus. Briefly: In vivo activity tested against C3H mice bearing panc-03 murine tumor measured as body weight loss at 1530 mg/kg (po). The class given is functional.
In test [27] the test system is Mus musculus. Briefly: In vivo activity tested against C3H mice bearing panc-03 murine tumor measured as log Kill value was based on tumors that grew at 1530 mg/kg (po). In kind it is functional, organism-based. Details: dose 1530 mg/kg.
Test [28] deals with Mus musculus. Briefly: In vivo activity tested against C3H mice bearing panc-03 murine tumor measured as % treated/control calculated at 1530 mg/kg (po). In kind it is functional.
The test system of test [29] is Mus musculus. In words: In vivo activity tested against C3H mice bearing panc-03 murine tumor measured as body weight loss at 2300 mg/kg (po). In kind it is functional.
For test [30], the system named is Mus musculus. Briefly: In vivo activity tested against C3H mice bearing panc-03 murine tumor measured as % treated/control calculated at 2300 mg/kg (po). The class given is functional.
Test [31] relates to Mus musculus. In words: In vivo activity tested against C3H mice bearing panc-03 murine tumor measured as log Kill value was based on tumors that grew at 2300 mg/kg (po). The class given is functional, organism-based. Details: dose 2300 mg/kg.
In test [32] the test system is Mus musculus. In words: In vivo activity tested against C3H mice bearing panc-03 murine tumor measured as % treated/control calculated at 480 mg/kg (po). In kind it is functional.
For test [33], the system named is Mus musculus. Briefly: In vivo activity tested against C3H mice bearing panc-03 murine tumor measured as cures at 2300 mg/kg (po); 1/5 cures. In kind it is functional.
Test [34] concerns Mus musculus. In words: In vivo activity tested against C3H mice bearing panc-03 murine tumor measured as log Kill value was based on tumors that grew at 480 mg/kg (po). In kind it is functional, organism-based. Details: dose 480 mg/kg.
The test system of test [35] is Mus musculus. In words: In vivo activity tested against C3H mice bearing panc-03 murine tumor measured as body weight loss at 480 mg/kg (po). In kind it is functional.

Consider `COC(=O)C(C)Oc1ccc(Oc2cnc3ccc(Cl)cc3n2)cc1` (stereo not given), for which the T/C with Mus musculus [1] is recorded as 0%. The same molecule registered a Cures in the test on Mus musculus [2] of 3. In the test on Mus musculus [3], this molecule gave a Log kill of 3.5. The Activity rating in the test with Mus musculus [4] is reported as over 2.8. Besides, in the test on Mus musculus [5], the Body weight loss stood at 0%.
Consider `CC(Oc1ccc(Oc2cnc3ccc([N+](=O)[O-])cc3n2)cc1)C(=O)O` (stereo not given), for which the Log kill with Mus musculus [6] was determined as 0.6. For the same molecule, the Body weight loss in the test on Mus musculus [7] is -3.5%. The T/C in the test on Mus musculus [8] is recorded as 52%.
`CC(Oc1ccc(Oc2cnc3ccc(N=[N+]=[N-])cc3n2)cc1)C(=O)O` (stereo not given): the Log kill in the test with Mus musculus [9] was determined as 1; in the test on Mus musculus [13], 2. Further, the T/C with Mus musculus [10] is 17%; with Mus musculus [14] it was 30%. Besides, the Body weight loss in the test on Mus musculus [11] came out at 4.3%; with Mus musculus [12], 2.9%.
For `COc1ccc2ncc(Oc3ccc(OC(C)C(=O)O)cc3)nc2c1Cl` (stereo not given), the T/C with Mus musculus [15] is given as 76%. The same molecule yielded a Log kill with Mus musculus [16] of 0. The Body weight loss with Mus musculus [17] is recorded as 11.1%.
For the molecule `CC(Oc1ccc(Oc2cnc3ccc(Cl)cc3n2)cc1)C1N=NN=N1` (stereo not given), the Activity rating in the test on Mus musculus [18] was under 0.7. Further, the T/C in the test with Mus musculus [19] was over 100%. In the test on Mus musculus [20], the Log kill entry is listed as “kill value was NIL”. For the same molecule, in the test on Mus musculus [21], the Body weight loss is recorded as 8.7%.
Take `CC(Oc1ccc(Oc2cnc3cc(F)ccc3n2)cc1)C(=O)O` (stereo not given): in the test on Mus musculus [22], the T/C is listed as 34%. This molecule yielded a Log kill with Mus musculus [23] of 0.9. In the test on Mus musculus [24], the Activity rating turned out to be 1.2. In the test with Mus musculus [25], the Body weight loss came to 1%.
`CC(Oc1ccc(Oc2cnc3ccc(Cl)cc3n2)cc1)C(=O)N(C)C` (stereo not given): the Body weight loss with Mus musculus [26] is -3.8%. Moreover, in the test on Mus musculus [27], the Log kill is 2.2. Moreover, in the test with Mus musculus [28], the T/C is reported as 16%.
Turning to `CNC(=O)C(C)Oc1ccc(Oc2cnc3ccc(Cl)cc3n2)cc1` (stereo not given), the figures for the Body weight loss with Mus musculus [29] and with Mus musculus [35] were -14.5% and -9.3%, respectively. Also, the T/C is on record as 4% in the test on Mus musculus [30] and 39% with Mus musculus [32]. The Log kill in the test on Mus musculus [31] is 4.2; with Mus musculus [34], 1.2. The molecule also had a Cures in the test with Mus musculus [33] of 1.
